pIC50: −log10 of the molar value.
How the values were obtained:
MERTK = target: T1, MERTK (Homo sapiens, UniProt Q12866); experiment: TR-FRET kinase activity assay, MERTK; format: biochemical; conditions: for pIC50: TR-FRET activity assay, ATP at Km, 60 minutes, read-out: Mer IC50
T1 sequence (Q12866 21-999): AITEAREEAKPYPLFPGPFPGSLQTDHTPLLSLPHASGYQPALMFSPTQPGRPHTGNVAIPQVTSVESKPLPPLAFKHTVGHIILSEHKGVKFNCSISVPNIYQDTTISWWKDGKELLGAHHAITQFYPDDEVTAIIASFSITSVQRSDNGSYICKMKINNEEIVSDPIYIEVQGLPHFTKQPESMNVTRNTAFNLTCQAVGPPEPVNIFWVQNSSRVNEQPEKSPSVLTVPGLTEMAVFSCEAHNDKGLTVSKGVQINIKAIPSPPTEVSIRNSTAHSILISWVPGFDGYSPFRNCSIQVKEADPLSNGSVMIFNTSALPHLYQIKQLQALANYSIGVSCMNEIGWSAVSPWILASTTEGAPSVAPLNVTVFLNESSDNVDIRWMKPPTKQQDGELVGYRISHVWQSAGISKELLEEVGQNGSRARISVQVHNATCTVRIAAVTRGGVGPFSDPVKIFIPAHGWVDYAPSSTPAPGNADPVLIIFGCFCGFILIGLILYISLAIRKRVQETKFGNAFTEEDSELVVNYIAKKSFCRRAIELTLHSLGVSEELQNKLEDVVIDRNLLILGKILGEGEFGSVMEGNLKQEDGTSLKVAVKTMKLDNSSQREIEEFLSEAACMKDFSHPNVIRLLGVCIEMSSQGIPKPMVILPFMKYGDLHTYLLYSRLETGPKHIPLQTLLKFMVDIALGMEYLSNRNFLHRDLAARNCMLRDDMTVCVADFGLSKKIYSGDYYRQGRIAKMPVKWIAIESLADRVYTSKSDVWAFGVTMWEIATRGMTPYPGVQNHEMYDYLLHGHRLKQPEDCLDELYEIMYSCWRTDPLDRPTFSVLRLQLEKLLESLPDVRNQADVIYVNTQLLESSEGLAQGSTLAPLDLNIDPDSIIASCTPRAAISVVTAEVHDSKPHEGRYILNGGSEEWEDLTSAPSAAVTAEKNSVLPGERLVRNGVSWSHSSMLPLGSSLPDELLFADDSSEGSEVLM
In short: (§1)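 IC50 reflects the drop in TR-FRET between Eu anti-phosphotyrosine antibody and labelled peptide after a 60-minute room-temperature reaction. Buffer was 50 mM HEPES pH 7.5 with 10 mM MgCl2, 1 mM EGTA, 0.01% Brij 35 and 1 mM DTT, with ATP at Km per enzyme and EDTA quench.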

AXL = target: T2, AXL (Homo sapiens, UniProt P30530); experiment: TR-FRET kinase activity assay, AXL; format: biochemical; conditions: ATP at Km, 60 minutes
T2 sequence (P30530 26-894): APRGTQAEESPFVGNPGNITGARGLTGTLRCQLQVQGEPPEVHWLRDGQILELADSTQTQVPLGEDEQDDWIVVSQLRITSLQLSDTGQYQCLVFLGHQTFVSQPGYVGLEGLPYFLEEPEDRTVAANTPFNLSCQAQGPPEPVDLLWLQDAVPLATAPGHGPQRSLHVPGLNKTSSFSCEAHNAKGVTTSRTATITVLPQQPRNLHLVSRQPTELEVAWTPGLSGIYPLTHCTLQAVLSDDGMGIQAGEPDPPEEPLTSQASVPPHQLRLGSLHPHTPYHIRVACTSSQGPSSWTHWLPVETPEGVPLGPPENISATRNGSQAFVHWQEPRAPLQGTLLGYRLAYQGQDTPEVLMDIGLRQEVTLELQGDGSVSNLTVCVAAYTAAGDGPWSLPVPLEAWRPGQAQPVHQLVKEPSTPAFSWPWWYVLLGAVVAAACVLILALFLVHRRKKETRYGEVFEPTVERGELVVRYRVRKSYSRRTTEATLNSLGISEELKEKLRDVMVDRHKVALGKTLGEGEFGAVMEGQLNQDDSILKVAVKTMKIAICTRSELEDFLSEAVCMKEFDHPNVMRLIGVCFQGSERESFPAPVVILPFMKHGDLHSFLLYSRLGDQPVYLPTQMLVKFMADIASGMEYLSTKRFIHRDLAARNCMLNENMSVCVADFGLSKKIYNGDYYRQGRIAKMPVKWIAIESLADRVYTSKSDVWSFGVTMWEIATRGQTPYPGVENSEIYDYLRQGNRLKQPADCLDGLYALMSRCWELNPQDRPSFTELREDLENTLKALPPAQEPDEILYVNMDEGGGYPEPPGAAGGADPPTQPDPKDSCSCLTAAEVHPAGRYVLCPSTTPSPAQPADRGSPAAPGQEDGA
In short: as §1

[1] = ratio of Mer to FLT3: FLT3 IC50/Mer IC50
[2] = ratio calculated as FLT3 IC50/Mer IC50

SMILES	pIC50 (MERTK)	FLT3/Mer ratio (FLT3 IC50/Mer IC50) (MERTK; [1])	pIC50 (AXL)	FLT3/Mer ratio (FLT3 IC50/Mer IC50) (MERTK; [2])
COCC(C)Nc1ncc2c(C3CCN(c4ccnc(C)n4)C3)cc(C3CCC(O)CC3)n2n1 (stereo not drawn) [Compound 373]	≥ 7.00	+++ (“+++” represents a ratio of >100)	6.00 to 7.00	–
COC[C@H](C)Nc1ncc2c(-c3cnn(C4CCN(C)C4=O)c3)cc([C@H]3CC[C@H](O)CC3)n2n1 (stereo partly drawn) [Compound 394, 3-(4-(7-((trans)-4-hydroxycyclohexyl)-2-(((S)-1-methoxypropan-2-yl)amino)pyrrolo[2,1-f][1,2,4]triazin-5-yl)-1H-pyrazol-1-yl)-1-methylpyrrolidin-2-one]	≥ 7.00	+++ (“+++” represents a ratio of >100)	≥ 7.00	–
COC[C@H](C)Nc1ncc2c(-c3cnn([C@@H]4CCN(C(C)=O)C4)c3)cc([C@H]3CC[C@H](O)CC3)n2n1 [Compound 396]	≥ 7.00	–	≥ 7.00	+++ (“+++” represents a ratio of >100)
COC[C@H](C)Nc1ncc2c(-c3cnn(CC4CC(=O)N(C)C4)c3)cc([C@H]3CC[C@H](O)CC3)n2n1 (stereo partly drawn) [Compound 395]	≥ 7.00	+++ (“+++” represents a ratio of >100)	≥ 7.00	–
COC[C@H](C)Nc1ncc2c(-c3ccnc(N4CCOCC4)c3)cc([C@H]3CC[C@H](O)CC3)n2n1 [Compound 355]	≥ 7.00	+ (“+” represents a ratio of >2.0 and <10)	≥ 7.00	–
CNC(=O)c1cncc(-c2cc([C@H]3CC[C@H](O)CC3)n3nc(N[C@@H](C)COC(F)F)ncc23)c1 [Compound 398]	≥ 7.00	–	≥ 7.00	+++ (“+++” represents a ratio of >100)
COC[C@H](C)Nc1ncc2c(-c3cnn(C4(C(=O)N5CCOCC5)CC4)c3)cc([C@H]3CC[C@H](O)CC3)n2n1 [Compound 414]	≥ 7.00	–	≥ 7.00	+++ (“+++” represents a ratio of >100)
CC(CC(F)F)Nc1ncc2c(-c3ccc(CN4CCN(C)CC4)cc3)cc(C3CCC(O)CC3)n2n1 (stereo not drawn) [Compound 352]	≥ 7.00	++ (“++” represents a ratio of between 10 and 100)	≥ 7.00	–
COC[C@H](C)Nc1ncc2c(-c3cnn(C4COC4)c3)cc(C3CCC(=O)CC3)n2n1 [Compound 406]	≥ 7.00	–	6.00 to 7.00	+++ (“+++” represents a ratio of >100)
COC[C@H](C)Nc1ncc2c(-c3cnn([C@H]4CCNC4=O)c3)cc([C@H]3CC[C@H](O)CC3)n2n1 [Compound 348]	≥ 7.00	+++ (“+++” represents a ratio of >100)	≥ 7.00	–

From patent publication US11040981B2, “Pyrrolotriazine compounds and methods of inhibiting TAM kinases” (Syros Pharmaceuticals, Inc., priority 2017, dated 2021)
